Results as given in article PMC7604909, “Structure of a GH51 α-L-arabinofuranosidase from Meripilus giganteus: conserved substrate recognition from bacteria to fungi” (Acta Crystallographica. Section D, Structural Biology, 2020).
Counter-ions that a name gives are not always drawn.

Key:
[1] = target: T1, MgGH51 (Meripilus giganteus, UniProt Z9H0M4BQG1); assay: hydrolysis kinetics, released L-arabinose quantified on CarboPac PA20; format: biochemical; conditions: 40 °C, 50 mM sodium acetate pH 4, 5 ng/ml enzyme, 0.02-2.5 mM substrate; kind of constant not told in main text
T1 construct: mature secreted enzyme, expressed in Aspergillus oryzae, N-glycosylated (Asn145, Asn245, Asn421, Asn487), untagged
T1 sequence (Z9H0M4BQG1 1-627): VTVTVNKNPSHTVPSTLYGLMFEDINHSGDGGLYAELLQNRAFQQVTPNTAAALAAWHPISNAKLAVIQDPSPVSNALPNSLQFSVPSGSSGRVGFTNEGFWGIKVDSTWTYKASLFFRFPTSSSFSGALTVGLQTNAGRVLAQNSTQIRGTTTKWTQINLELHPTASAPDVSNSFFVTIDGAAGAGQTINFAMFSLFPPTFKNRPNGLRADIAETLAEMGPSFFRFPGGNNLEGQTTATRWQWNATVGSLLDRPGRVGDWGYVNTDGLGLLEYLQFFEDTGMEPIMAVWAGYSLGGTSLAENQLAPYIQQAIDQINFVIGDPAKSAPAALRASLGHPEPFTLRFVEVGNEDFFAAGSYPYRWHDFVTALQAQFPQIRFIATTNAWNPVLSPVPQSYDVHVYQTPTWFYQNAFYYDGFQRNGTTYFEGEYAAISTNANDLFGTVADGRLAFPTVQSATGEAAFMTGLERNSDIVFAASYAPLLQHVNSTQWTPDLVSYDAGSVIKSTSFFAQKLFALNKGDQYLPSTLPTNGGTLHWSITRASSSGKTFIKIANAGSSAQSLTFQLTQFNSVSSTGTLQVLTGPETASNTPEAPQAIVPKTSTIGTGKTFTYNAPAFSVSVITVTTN

[2] = target: T1, MgGH51; assay: X-ray crystal structure, […] Å; format: binding; conditions: type 1 crystal, about one equivalent of inhibitor, 1 h at room temperature; covalent, bound to nucleophile Glu429 (ring-opened aziridine)
[3] = target: T1, MgGH51; assay: X-ray crystal structure, […] Å; format: binding; conditions: type 1 crystal, about one equivalent of inhibitor, 1 h at room temperature; covalent, bound to nucleophile Glu429 (ring-opened cyclic sulfate); PDB code from Tables 3 and 4, the supplementary list pri

Compound | hydrolysis kinetics, released L-arabinose quantified on CarboPac PA20 [1] | also measured
OC[C@@H]1O[C@@H](OC[C@@H]2O[C@@H](OC[C@@H]3OC(O)[C@H](O)[C@H]3O)[C@H](O)[C@H]2O)[C@H](O)[C@H]1O (stereo partly drawn) [A3, α(1,5)-linked arabinotriose] | Measurement of the hydrolytic kinetics of MgGH51 towards the AX2 and A3 oligosaccharides | 
OC[C@@H]1O[C@@H](O[C@@H]2[C@@H](O)[C@H](O[C@@H]3COC(O)[C@H](O)[C@H]3O)OC[C@H]2O)[C@H](O)[C@H]1O (stereo partly drawn) [AX2, 3^2-α-L-Arabinofuranosyl-xylobiose] | Measurement of the hydrolytic kinetics of MgGH51 towards the AX2 and A3 oligosaccharides | 
OC[C@H]1[C@H](O)[C@@H](O)[C@@H]2N[C@H]12 [α-L-AraAZI, α-L-arabinocyclophellitol aziridine] |  | X-ray crystal structure, 1.54 Å [2]: α-L-AraCS or α-L-AraAZI gave clear density for these two ligands bound to Glu429
O=S1(=O)O[C@@H]2[C@@H](CO)[C@H](O)[C@@H](O)[C@@H]2O1 [α-L-AraCS, α-L-arabinocyclophellitol cyclic sulfate] |  | X-ray crystal structure, 1.71 Å [3]: α-L-AraCS or α-L-AraAZI gave clear density for these two ligands bound to Glu429
